Measured values taken from patent US9682976B2, “Protein kinase C inhibitors and uses thereof” (Rigel Pharmaceuticals, Inc., priority 2012, dated 2017).
pEC50: −log10 of the molar value.

Test system: PKC mediated IL-2 production
Experiment: IL-2 ELISA, human primary T cell, anti CD3+CD28+
Assay type: cell-based
Details: human primary T cells stimulated with αCD3 and αCD28, 24 hours
Protocol: Compounds 1-328 were tested in a whole cell functional assay for PKC mediated IL-2 production as follows. Human primary T cell isolation and culture: Human primary T cells were prepared as follows. Whole blood was obtained from a healthy volunteer, mixed 1:1 with PBS, layered on to Ficoll Hypaque (Amersham Pharmacia Biotech, Piscataway, N.J., Catalog #17-1440-03) in 2:1 blood/PBS:ficoll ratio and centrifuged for 30 minutes at 4° C. at 1750 rpm. The cells at the serum: ficoll interface were recovered and washed twice with 5 volumes of PBS. These freshly isolated human peripheral blood mononuclear cells were cultured in Yssel's medium containing 40 U/ml IL2 in a flask pre-coated with […] αCD3 and 5 μg/ml αCD28 (Anti-Human CD3, BD Pharmingen Catalog #555336, Anti-Human CD28, Beckman Coulter Catalog #IM1376). The cells were stimulated for 3-4 days, then transferred to a fresh flask and maintained in RPMI (RPMI-1640 with L-Glutamine; Mediatech, Inc., Herndon Va., cat. #10-040-CM) with 10% FBS and 40 U/ml IL-2. The primary T-cells were then washed twice with PBS to remove the IL-2.
Primary T cell stimulation and IL2 ELISA: Human primary T cells (100,000 cells per well) were pre-incubated with or without test compound in Yssel's medium for 1 hour at 37° C. Cells were then stimulated by transferring them to round-bottom 96-well plates pre-coated with […] αCD3 and 5 μg/ml αCD28. For counter assay, cells were instead stimulated by adding 8× stock solutions of PMA and ionomycin in Yssels (for final concentrations of 0.5 ng/ml PMA and 0.1 uM ionomycin, both from Calbiochem). Cells were incubated at 37° C. for 24 hours before 100 μL supernatants were harvested for quantification of IL-2 by ELISA using Human IL-2 Duoset ELISA Kit from R and D Systems, Cat. # DY202E.

Row | Compound | pEC50 (Homo sapiens, T-cell, 24 h) | pEC50
1 | CC(O)COc1ccc(Nc2ncc(Cl)c(N[C@@H]3C[C@@H]4CCCN4C(C)(C)C3)n2)cc1C#N (stereo partly drawn) [Compound 229, 5-((5-chloro-4-(((7R,8aS)-5,5-dimethyloctahydroindolizin-7-yl)amino)pyrimidin-2-yl)amino)-2-(2-hydroxypropoxy)benzonitrile] | 5.00 to 6.00 | 
2 | CC1(C)C[C@H](Nc2nc(Nc3ccc(OC4CCNCC4)c(C(F)(F)F)c3)ncc2F)C[C@@H]2CCCN21 [Compound 118, N^4-((7R,8aS)-5,5-dimethyloctahydroindolizin-7-yl)-5-fluoro-N^2-(4-(piperidin-4-yloxy)-3-(trifluoromethyl)phenyl)pyrimidine-2,4-diamine] | 6.30 to 7.00 | 
3 | CC1(C)C[C@H](Nc2nc(Nc3ccc(O)c(-n4cnnn4)c3)ncc2F)C[C@@H]2CCCN21 [Compound 196, 4-((4-(((7R,8aS)-5,5-dimethyloctahydroindolizin-7-yl)amino)-5-fluoropyrimidin-2-yl)amino)-2-(1H-tetrazol-1-yl)phenol] | 6.30 to 7.00 | 
4 | CC1(C)C[C@H](Nc2nc(Nc3ccc(NCC(O)CCl)c(C(F)(F)F)c3)ncc2F)C[C@@H]2CCCN21 (stereo partly drawn) [Compound 321, 1-(4-(4-((7R,8aS)-octahydro-5,5-dimethylindolizin-7-ylamino)-5-fluoropyrimidin-2-ylamino)-2-(trifluoromethyl)phenylamino)-3-chloropropa-2-ol] | 6.30 to 7.00 | 
5 | CC1(C)C[C@H](Nc2nc(Nc3ccc(Cl)c(-n4nnnc4C4CC4)c3)ncc2Cl)C[C@@H]2CCCN21 [Compound 182, 5-chloro-N2-(4-chloro-3-(5-cyclopropyl-1H-tetrazol-1-yl)phenyl)-N4-((7R,8aS)-5,5-dimethyloctahydroindolizin-7-yl)pyrimidine-2,4-diamine] | > 7.00 | 
6 | Cn1nnn(-c2cc(Nc3ncc(F)c(N[C@@H]4C[C@@H]5CCCN5C(C)(C)C4)n3)c(F)cc2OCC(O)C(F)(F)F)c1=O (stereo partly drawn) [Compound 230, 1-(5-((4-(((7R,8aS)-5,5-dimethyloctahydroindolizin-7-yl)amino)-5-fluoropyrimidin-2-yl)amino)-4-fluoro-2-(3,3,3-trifluoro-2-hydroxypropoxy)phenyl)-4-methyl-1,4-dihydro-5H-tetrazol-5-one] | 6.30 to 7.00 | 
7 | CC(C)N1CCC(Oc2ccc(Nc3ncc(F)c(N[C@@H]4C[C@H]5CCCN5C(C)(C)C4)n3)cc2OC(F)F)CC1 (single isomer, unassigned) [Compound 8, (R/S, S/R, R/R, S/S)-N^2-(4-(1-isopropylpiperidin-4-yloxy)-3-(difluoromethoxy)phenyl)-5-fluoro-N^4-(octahydro-5,5-dimethylindolizin-7-yl)pyrimidine-2,4-diamine] |  | 6.00 to 6.30
8 | Cn1nnn(-c2cc(Nc3ncc(C#N)c(N[C@@H]4C[C@@H]5CCCN5C(C)(C)C4)n3)c(F)cc2OC(C)(C)CO)c1=O [Compound 84, 4-((7R,8aS)-octahydro-5,5-dimethylindolizin-7-ylamino)-2-(4-(1-hydroxy-2-methylpropan-2-yloxy)-2-fluoro-5-(4,5-dihydro-4-methyl-5-oxotetrazol-1-yl)phenylamino)pyrimidine-5-carbonitrile] | 6.30 to 7.00 | 
9 | COCCOCCOc1ccc(Nc2ncc(F)c(N[C@@H]3C[C@@H]4CCCN4C(C)(C)C3)n2)cc1-n1cnnn1 [Compound 207, N4-((7R,8aS)-5,5-dimethyloctahydroindolizin-7-yl)-5-fluoro-N2-(4-(2-(2-methoxyethoxy)ethoxy)-3-(1H-tetrazol-1-yl)phenyl)pyrimidine-2,4-diamine] | > 7.00 | 
10 | [2H]C([2H])(O)C([2H])([2H])Oc1ccc(Nc2ncc(F)c(N[C@@H]3C[C@@H]4CCCN4C(C)(C)C3)n2)cc1OC [Compound 217, 2-(4-((4-(((7R,8aS)-5,5-dimethyloctahydroindolizin-7-yl)amino)-5-fluoropyrimidin-2-yl)amino)-2-methoxyphenoxy)ethan-1,1,2,2-d4-1-ol] | < 5.00 | 
11 | CC1(C)C[C@H](Nc2nc(Nc3cc(S(F)(F)(F)(F)F)ccc3F)ncc2F)C[C@@H]2CCCN21 [Compound 71] | 6.00 to 6.30 | 
12 | Fc1cc(C2CC2)c(-n2cnnn2)cc1Nc1ncc(F)c(NC2CCN3CCCC3C2)n1 (racemic) [Compound 24, (±)-N^2-(4-cyclopropyl-2-fluoro-5-(1H-tetrazol-1-yl)phenyl)-5-fluoro-n^4-(octahydroindolizin-7-yl)pyrimidine-2,4-diamine] | 6.30 to 7.00 | 
13 | Cc1nnnn1-c1cc(Nc2ncc(F)c(N[C@@H]3C[C@@H]4CCCN4C(C)(C)C3)n2)c(F)cc1O [Compound 252, 4-(4-((7R,8aS)-octahydro-5,5-dimethylindolizin-7-ylamino)-5-fluoropyrimidin-2-ylamino)-5-fluoro-2-(5-methyl-1H-tetrazol-1-yl)phenol] | 5.00 to 6.00 | 
14 | CC1(C)Oc2ccc(Nc3ncc(F)c(N[C@@H]4C[C@@H]5CCCN5C(C)(C)C4)n3)cc2-n2c1nn(C1COC1)c2=O [Compound 251, 5-fluoro-N2-(1H-2,4-dihydron-4,4-dimethyl-2-(oxetan-3-yl)[1,2,4]triazolo[3,4-c][1,4]benzoxazin-1-one-8-yl)-N4-((7R,8aS)-octahydro-5,5-dimethylindolizin-7-yl)pyrimidine-2,4-diamine] | 5.00 to 6.00 | 
15 | CO[C@@H](C)COc1cc(F)c(Nc2ncc(Cl)c(N[C@@H]3C[C@@H]4CCCN4C(C)(C)C3)n2)cc1-n1nnn(C)c1=O [Compound 238, 1-(5-((5-chloro-4-(((7R,8aS)-5,5-dimethyloctahydroindolizin-7-yl)amino)pyrimidin-2-yl)amino)-4-fluoro-2-((S)-2-methoxypropoxy)phenyl)-4-methyl-1,4-dihydro-5H-tetrazol-5-one] | 6.00 to 6.30 | 
16 | COc1ccc(Nc2ncc(F)c(N[C@@H]3C[C@@H]4CCCN4C(C)(C)C3)n2)cc1-n1nnn(C2COC2)c1=O [Compound 285, 1-(5-(4-((7R,8aS)-octahydro-5,5-dimethylindolizin-7-ylamino)-5-fluoropyrimidin-2-ylamino)-2-methoxyphenyl)-4-(oxetan-3-yl)-1H-tetrazol-5(4H)-one] | 6.30 to 7.00 | 
17 | CC1(C)C[C@H](Nc2nc(Nc3ccc(OCCO)c(C#N)c3)ncc2F)C[C@@H]2CCCN21 [Compound 189, 5-((4-(((7R,8aS)-5,5-dimethyloctahydroindolizin-7-yl)amino)-5-fluoropyrimidin-2-yl)amino)-2-(2-hydroxyethoxy)benzonitrile] | 6.30 to 7.00 | 
18 | CC1(C)C[C@H](Nc2nc(Nc3cc(-n4nnnc4C4CC4)c(O)cc3F)ncc2F)C[C@@H]2CCCN21 [Compound 256, 4-(4-((7R,8aS)-octahydro-5,5-dimethylindolizin-7-ylamino)-5-fluoropyrimidin-2-ylamino)-2-(5-cyclopropyl-1H-tetrazol-1-yl)-5-fluorophenol] | 5.00 to 6.00 | 
19 | Cn1nnn(-c2cc(Nc3ncc(F)c(N[C@@H]4C[C@@H]5CCCN5C(C)(C)C4)n3)c(F)cc2OCC(=O)C(=O)O)c1=O [Compound 171, 3-(4-((4-(((7R,8aS)-5,5-dimethyloctahydroindolizin-7-yl)amino)-5-fluoropyrimidin-2-yl)amino)-5-fluoro-2-(4-methyl-5-oxo-4,5-dihydro-1H-tetrazol-1-yl)phenoxy)-2-oxopropanoic acid] | < 5.00 | 
20 | Cn1nnn(-c2cc(Nc3ncc(C#N)c(N[C@@H]4C[C@@H]5CCCN5C(C)(C)C4)n3)c(F)cc2O[C@H]2CCOC2)c1=O [Compound 112] | 6.30 to 7.00 | 
21 | CC1(C)C[C@H](Nc2nc(Nc3ccc(OCCO)c(-n4cnnn4)c3)ncc2Cl)C[C@@H]2CCCN21 [Compound 223, 2-(4-((5-chloro-4-(((7R,8aS)-5,5-dimethyloctahydroindolizin-7-yl)amino)pyrimidin-2-yl)amino)-2-(1H-tetrazol-1-yl)phenoxy)ethan-1-ol] | > 7.00 | 
22 | Cn1nnn(-c2cc(Nc3ncc(F)c(N[C@@H]4C[C@@H]5CC(F)(F)CN5C(C)(C)C4)n3)c(F)cc2C2CC2)c1=O [Compound 45, 1-(5-(4-((7R,8aR)-2,2-difluoro-octahydro-5,5-dimethylindolizin-7-ylamino)-5-fluoropyrimidin-2-ylamino)-2-cyclopropyl-4-fluorophenyl)-4-methyl-1H-tetrazol-5(4H)-one] | 5.00 to 6.00 | 
23 | Cn1nnn(-c2cc(Nc3ncc(F)c(N[C@@H]4C[C@@H]5CCCN5C(C)(C)C4)n3)c(F)cc2OC2CC(O)C2)c1=O (stereo partly drawn) [Compound 227, 1-(5-((4-(((7R,8aS)-5,5-dimethyloctahydroindolizin-7-yl)amino)-5-fluoropyrimidin-2-yl)amino)-4-fluoro-2-(3-hydroxycyclobutoxy)phenyl)-4-methyl-1,4-dihydro-5H-tetrazol-5-one] | 6.30 to 7.00 | 
24 | CC(C)N1CCC(Oc2ccc(Nc3ncc(F)c(N[C@H]4C[C@@H]5CCCN5C(C)(C)C4)n3)cc2OC(F)F)CC1 (single isomer, unassigned) [Compound 9, (R/S, S/R, R/R, S/S)-N^2-(4-(1-isopropylpiperidin-4-yloxy)-3-(difluoromethoxy)phenyl)-5-fluoro-N^4-(octahydro-5,5-dimethylindolizin-7-yl)pyrimidine-2,4-diamine] |  | 6.30 to 7.00
